Test [1] concerns Staphylococcus aureus NCTC 13373 (mecA-positive; methicillin-resistant). Briefly: In vitro antibacterial activity, MIC (UCL School of Pharmacy assay), MRSA. As to conditions: for MIC: Staphylococcus aureus. In kind it is cell-based. The method, then:
(§1) Staphylococcus aureus NCTC 13373 (mecA-positive; methicillin-resistant, NCTC 13373) was supplied by the National Collection of Type Cultures (NCTC), Public Health England, United Kingdom. Other organisms, S. aureus ATCC 25923 (methicillin-susceptible) and Enterococcus faecalis ATCC 51299 (vanA-positive; vancomycin-resistant), were obtained from the American Type Culture Collection (ATCC) via LGC Standards, UK. A suspension of each organism was prepared from an overnight plate culture (tryptone soya agar) in phosphate-buffered saline (PBS) and adjusted to an absorbance reading at 600 nm of 0.1, which is approximately equivalent to 1 × 10^8 colony-forming units (CFU) per mL. The cultures were further diluted 1:100 in isosensitest broth (Oxoid, United Kingdom) before 100 μL was used to inoculate each well of a 96-well plate that contained diluted samples of the OSA series. Compounds were evaluated over a 2-fold dilution range from 32 to 0.03 μg/mL. Stocks of the samples were prepared in 100% DMSO at […] before being diluted in isosenstitest broth. The highest concentration of DMSO present was 2%, which has been previously shown not to inhibit the growth of the microorganisms (data not shown). […] Vancomycin was used as a quality control compound.

For test [2], the system named is S. aureus ATCC 25923 (methicillin-susceptible). The test can be described thus: In vitro antibacterial activity, MIC (UCL), MSSA. In kind it is cell-based, Staphylococcus aureus. As to conditions: Staphylococcus aureus. The method, then: as §1
Where [3] appears, read: UCL assay, read-out: MRSA MIC (ug/mL) (UCL).
[4] abbreviates: UCL assay, read-out: MSSA MIC (ug/mL) (UCL).

In brackets after ≈: the same amount, converted by molar mass. Read-outs that look alike come from different tables or passages of the source.

The source of these data is publication PMC10714399, “Open Source Antibiotics: Simple Diarylimidazoles Are Potent against Methicillin-Resistant Staphylococcus aureus” (ACS Infectious Diseases, 2023).

Take `c1ccc(-c2nc3n(c2-c2csc4ccccc24)CCC3)nc1` [OSA_000832]: in test [1] (UCL, read-out: MRSA MIC (UCL)), the MIC turned out to be 8 µg/mL (≈ 25.2 µM). For `c1ccc(-c2nc3n(c2-c2ccc4cccnc4c2)CCC3)nc1` [OSA_000833], the MIC in test [1] (UCL, read-out: MRSA MIC (UCL)) is over 32 µg/mL. On the same count and under the same terms, then `c1ccc(-c2nc3n(c2-c2ccc4sccc4c2)CCC3)cc1` [OSA_000834], with over 32 µg/mL; and `c1ccc(-c2nc3n(c2-c2ccc4scnc4c2)CCC3)nc1` [OSA_000835], with 32 µg/mL (≈ 101 µM). On to `Fc1ccc(Nc2c(-c3nccs3)nc3ccccn23)cc1` [OSA_001008], for which the MIC in test [1] (UCL, read-out: MRSA MIC (UCL)) was over 32 µg/mL; in test [2] (read-out: MSSA MIC (UCL)), over 32 µg/mL.

As for `Fc1ccc(Nc2c(-c3ccc[nH]3)nc3ccccn23)cc1` [OSA_001009], the MIC in test [1] (UCL, read-out: MRSA MIC (UCL)) was over 32 µg/mL; in test [2] (read-out: MSSA MIC (UCL)), over 32 µg/mL. In the case of `CC(C)CN(c1ccc(F)cc1)c1c(-c2nccs2)nc2ccccn12` [OSA_001010], the MIC in test [1] (UCL, read-out: MRSA MIC (UCL)) is over 32 µg/mL; in test [2] (read-out: MSSA MIC (UCL)), over 32 µg/mL.

As for `CN1CCN(c2ccc(-c3c(-c4ccccn4)nc4ccccn34)cc2)CC1` [OSA_001012], the MIC in test [1] (UCL, read-out: MRSA MIC (UCL)) was over 32 µg/mL; in test [2] (read-out: MSSA MIC (UCL)), over 32 µg/mL. For `Cc1ccc(-c2c(-c3ccccn3)nc3cc(C#N)ccn23)cc1` [OSA_001013], the MIC in test [1] (UCL, read-out: MRSA MIC (UCL)) was over 32 µg/mL; in test [2] (read-out: MSSA MIC (UCL)), over 32 µg/mL. On to `Cc1ccc(-c2c(-c3ccccn3)nc3cc(N4CCNCC4)ccn23)cc1` [OSA_001014], for which the MIC was over 32 µg/mL in test [1] (UCL, read-out: MRSA MIC (UCL)) and over 32 µg/mL in test [2] (read-out: MSSA MIC (UCL)).

Turning to `Cc1ccc(-c2c(-c3ccccn3)nc3cc(C(N)=O)ccn23)cc1` [OSA_001015], the MIC was over 32 µg/mL in test [1] (UCL, read-out: MRSA MIC (UCL)) and over 32 µg/mL in test [2] (read-out: MSSA MIC (UCL)).

For the compound `N#Cc1ccc(C(=O)Nc2c(-c3ccccn3)nc3ccccn23)cc1` [OSA_001016], the MIC in test [1] (UCL, read-out: MRSA MIC (UCL)) was over 32 µg/mL; in test [2] (read-out: MSSA MIC (UCL)) it was over 32 µg/mL.

For `Cc1ccc(C(=O)Nc2c(-c3ccccn3)nc3ccccn23)cc1` [OSA_001017], the MIC was over 32 µg/mL in test [1] (UCL, read-out: MRSA MIC (UCL)) and over 32 µg/mL in test [2] (read-out: MSSA MIC (UCL)). With `COc1ccc(-c2nc3ccccn3c2N(CC(C)C)c2ccc(F)cc2)nc1` [OSA_001034], the MIC in test [1] (setting [3]) turned out to be 8 µg/mL (≈ 20.5 µM).

Regarding `CC(C)CN(c1ccc(F)cc1)c1c(-c2ccccn2)nc2cnccn12` [OSA_001035], the MIC in test [1] (setting [3]) and in test [2] (setting [4]) was over 32 µg/mL each time.

In the case of `CC(C)CN(c1ccc(F)cc1)c1c(-c2ccccn2)nc2cccnn12` [OSA_001036], the MIC in test [1] (setting [3]) and in test [2] (setting [4]) was 32 µg/mL (≈ 88.5 µM) throughout. As for `CC(C)CN(c1ccc(F)cc1)c1c(-c2ccccn2)nc2ccc(S(C)(=O)=O)cn12` [OSA_001037], the MIC in test [1] (setting [3]) and in test [2] (setting [4]) was over 32 µg/mL in each case.

With `CC(C)CN(c1ccc(F)cc1)c1c(-c2ccccn2)nc2ncccn12` [OSA_001038], the MIC in test [2] (setting [4]) came out at 8 µg/mL (≈ 22.1 µM). `CC(C)CN(c1ccc(F)cc1)c1c(-c2ccccn2)nc2ccncn12` [OSA_001039]: the MIC in test [1] (setting [3]) and in test [2] (setting [4]) was over 32 µg/mL throughout.

In the case of `CC(C)CN(Cc1c(-c2ccccn2)nc2ccccn12)c1ccc(F)cc1` [OSA_001040], the results for the MIC in test [1] (setting [3]) and in test [2] (setting [4]) were 32 µg/mL (≈ 85.5 µM) and over 32 µg/mL, respectively. On to `N#Cc1ccc(-c2nc(-c3ccccn3)c[nH]2)cc1` [OSA_001102], for which the MIC in test [1] (setting [3]) and in test [2] (setting [4]) was over 32 µg/mL in each case. As for `N#Cc1ccc(-c2c(-c3ccccn3)nc3cccnn23)cc1` [OSA_001103], the MIC in test [1] (setting [3]) and in test [2] (setting [4]) was over 32 µg/mL throughout.

Consider `N#Cc1ccc(-c2c(-c3ccccn3)nc3ccccn23)cc1` [OSA_001104], for which the MIC in test [1] (setting [3]) and in test [2] (setting [4]) was over 32 µg/mL each time. Take `N#Cc1ccc(-c2c(-c3ccccn3)nc3ncccn23)cc1` [OSA_001105]: the MIC in test [1] (setting [3]) and in test [2] (setting [4]) was over 32 µg/mL in each case.

On to `N#Cc1ccc(-c2c(-c3ccccn3)nc3cnccn23)cc1` [OSA_001106], for which the MIC in test [1] (setting [3]) and in test [2] (setting [4]) was over 32 µg/mL throughout. Take `N#Cc1ccc(-c2c(-c3ncccn3)nc3ccccn23)cc1` [OSA_001107]: the MIC in test [1] (setting [3]) and in test [2] (setting [4]) was over 32 µg/mL each time. In the case of `c1ccc(-c2nc3n(c2-c2ccc4c(c2)OCO4)CCS3)nc1` [compound 813], the “MRSA MIC” value in test [1] came out at 32 µg/mL. `c1ccc(-c2nc3ccccn3c2-c2ccc3c(c2)OCO3)nc1` [compound 814]: the MIC in test [1] (read-out: MRSA MIC) came to 32 µg/mL (≈ 101 µM). Regarding `c1ccc(-c2nc3ncccn3c2-c2ccc3c(c2)OCO3)nc1` [compound 815], the “MRSA MIC” value in test [1] was over 32 µg/mL.

Turning to `c1cncc(-c2nc3n(c2-c2ccc4c(c2)OCO4)CCC3)c1` [compound 816], in test [1], the “MRSA MIC” value is on record as over 32 µg/mL. Still for that read-out and setting: with `c1cc(-c2nc3n(c2-c2ccc4c(c2)OCO4)CCC3)ccn1` [compound 817] the figure was over 32 µg/mL; with `c1ccc(-c2nc3n(c2-c2ccc4c(c2)OCO4)CCCC3)nc1` [compound 818], 16 µg/mL. As to `c1ccc(-c2nc3n(c2-c2ccc4c(c2)OCCO4)CCC3)nc1` [compound 819], the MIC in test [1] (read-out: MRSA MIC) turned out to be 16 µg/mL (≈ 50.1 µM). For the compound `COc1ccc(-c2c(-c3ccccn3)nc3n2CCC3)cc1OC` [compound 820], in test [1], the “MRSA MIC” value is recorded as 32 µg/mL. For the same compound, the MIC was over 32 µg/mL in test [1] (16 h, read-out: MRSA MIC); over 32 µg/mL in test [1] (read-out: MRSA MIC); over 32 µg/mL in test [2] (read-out: MSSA MIC).

Consider `COc1ccc(-c2c(-c3ccccn3)nc3n2CCC3)cc1` [compound 823], for which the MIC in test [1] (read-out: MRSA MIC) turned out to be 16 µg/mL (≈ 54.9 µM). Still for that read-out and setting: then `CSc1ccc(-c2c(-c3ccccn3)nc3n2CCC3)cc1` [compound 824], with 4 µg/mL (≈ 13 µM). Turning to `COc1cccc(-c2c(-c3ccccn3)nc3n2CCC3)c1` [compound 825], the MIC in test [1] (read-out: MRSA MIC) came to 16 µg/mL (≈ 54.9 µM). Consider `CSc1cccc(-c2c(-c3ccccn3)nc3n2CCC3)c1` [compound 826], for which the MIC in test [1] (read-out: MRSA MIC) amounted to 4 µg/mL (≈ 13 µM). In the case of `c1ccc(-c2nc3n(c2-c2ccc4c(c2)CCO4)CCC3)nc1` [compound 827], the “activity against MRSA, in words” value in test [1] is recorded as “ineffective”. In test [1] (read-out: MRSA MIC), the MIC was 32 µg/mL (≈ 105 µM). For the compound `c1ccc(-c2nc3n(c2-c2ccc4c(c2)OCC4)CCC3)nc1` [compound 828], in test [1], the “activity against MRSA, in words” value was “ineffective”. Moreover, in test [1] (read-out: MRSA MIC), the MIC worked out at 32 µg/mL (≈ 105 µM). In the case of `c1ccc(-c2nc3n(c2-c2ccc4ccoc4c2)CCC3)nc1` [compound 829], the MIC in test [1] (read-out: MRSA MIC) is 4 µg/mL (≈ 13.3 µM). Turning to `c1ccc(-c2nc3n(c2-c2ccc4ccsc4c2)CCC3)nc1` [compound 830], in test [1] (read-out: MRSA MIC), the MIC amounted to 4 µg/mL (≈ 12.6 µM). The same measure, in the same setting: with `c1ccc(-c2nc3n(c2-c2ccc4sc5ccccc5c4c2)CCC3)nc1` [compound 831] the figure was 8 µg/mL (≈ 21.8 µM); with `c1ccc(-c2nc3n(c2-c2csc4ccccc24)CCC3)nc1` [compound 832], 8 µg/mL (≈ 25.2 µM). As to `c1ccc(-c2nc3n(c2-c2ccc4cccnc4c2)CCC3)nc1` [compound 833], the “activity against MRSA, in words” value in test [1] was “ineffective”. Besides, in test [1] (read-out: MRSA MIC), the MIC is over 32 µg/mL. Turning to `c1ccc(-c2nc3n(c2-c2ccc4sccc4c2)CCC3)cc1` [compound 834], the “MRSA MIC” value in test [1] is given as over 32 µg/mL. On to `c1ccc(-c2nc3n(c2-c2ccc4scnc4c2)CCC3)nc1` [compound 835], for which the “activity against MRSA, in words” value in test [1] is on record as “ineffective”. Besides, the MIC in test [1] (read-out: MRSA MIC) is 32 µg/mL (≈ 101 µM). As for `Cc1nc2cc(-c3c(-c4ccccn4)nc4n3CCC4)ccc2s1` [compound 836], the “activity against MRSA, in words” value in test [1] was “ineffective”. In test [1] (read-out: MRSA MIC), the MIC came to 32 µg/mL (≈ 96.3 µM).

As to `COc1cccn2c(N(C)c3ccc(F)cc3)c(-c3ccccn3)nc12` [compound 1001], the MIC in test [1] (16 h, read-out: MRSA MIC) came out at 16 µg/mL (≈ 45.9 µM); in test [2] (16 h, read-out: MSSA MIC) it was 16 µg/mL (≈ 45.9 µM).

For the compound `COc1ccc(-c2nc3ccccn3c2N(CC(C)C)c2ccc(F)cc2)nc1` [compound 1034], the “MRSA MIC” value in test [1] is 8 µg/mL.
